Reference: patent EP1068199B1, “N-ARYLOXYETHYL-INDOLY-ALKYLAMINES FOR THE TREATMENT OF DEPRESSION” (Wyeth, priority 1998, dated 1999)
pKi: −log10 of the molar value.

Experiments:
[1] = target: T1, human 5-HT1A receptor subtype (Homo sapiens, UniProt P08908); test: 5-HT1A receptor binding, [3H]8-OH-DPAT competition on h5-HT1A.CHO cell membranes; conditions: [3H]8-OH-DPAT 1.5 nM
T1 construct: expressed in transfected cells
T1 sequence (P08908 1-422): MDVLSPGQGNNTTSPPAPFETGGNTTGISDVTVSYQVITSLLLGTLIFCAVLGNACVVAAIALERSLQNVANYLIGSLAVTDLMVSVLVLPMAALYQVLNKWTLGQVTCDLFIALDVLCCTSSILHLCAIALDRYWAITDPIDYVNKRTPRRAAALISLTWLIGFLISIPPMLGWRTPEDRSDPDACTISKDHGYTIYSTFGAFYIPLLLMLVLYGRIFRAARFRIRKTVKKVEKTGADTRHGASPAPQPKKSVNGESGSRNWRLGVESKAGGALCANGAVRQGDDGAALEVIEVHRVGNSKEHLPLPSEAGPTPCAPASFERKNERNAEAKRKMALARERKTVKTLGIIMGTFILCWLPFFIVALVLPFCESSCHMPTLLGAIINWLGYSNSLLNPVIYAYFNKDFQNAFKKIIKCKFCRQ
Procedure: A stable Chinese hamster ovary cell line expressing the human 5-HT1A receptor subtype (h5-HT1A.CHO cells) was employed throughout this study. Cells were maintained in DMEM supplemented with 10% fetal calf serum, non-essential amino acids and penicillin/ streptomycin.
Cells were grown to 95-100% confluency as a monolayer before membranes were harvested for binding studies. Cells were gently scraped from the culture plates, transferred to centrifuge tubes, and washed twice by centrifugation (2000 rpm for 10 min., 4°C) in buffer (50 mM Tris; pH 7.5). The resulting pellets were aliquoted and placed at -80°C. On the day of assay, the cells were thawed on ice, and resuspended in buffer. Studies were conducted using [^3H]8-OH-DPAT as the radioligand. The binding assay was performed in 96 well microtiter plates in a final total volume of 250 µL of buffer. […] Non-specific binding was determined in the presence of 10 µM 5HT. Saturation analysis was conducted by using [^3H]8-OH-DPAT at concentrations ranging from 0.3-30 nM. Following a 30 minute incubation at room temperature, the reaction was terminated by the addition of ice cold buffer and rapid filtration using a M-96 Brandel Cell Harvester (Gaithersburg, MD) through a GF/B filter presoaked for 30 minutes in 0.5% polyethyleneimine.

serotonin transporter = target: T2, serotonin transporter (Rattus norvegicus, UniProt P31652); test: Serotonin transporter affinity, 3H-paroxetine binding to frontal cortical membranes; design: species or system male Sprague-Dawley rats; conditions: read-out: ST (Ki, nM,)
T2 construct: frontal cortical membranes prepared from male Sprague-Dawley rats; from tissue; host or cells: rat frontal cortex membranes (male Sprague-Dawley)
Procedure: Briefly, frontal cortical membranes prepared from male Sprague-Dawley rats were incubated with ^3H-paroxetine (0.1 nM) for 60 min at 25°C. […] All reactions are terminated by the addition of ice cold Tris buffer followed by rapid filtration using a Tom Tech filtration device to separate bound from free ^3H-paroxetine.

5-HT1A cloned receptor = target: T3, 5-HT1A cloned receptor (Homo sapiens, UniProt P08908); test: [35S]-GTPγS binding assay on 5-HT1A cloned receptor membrane fragments; assay type: biochemical; conditions: maximum agonist response defined by excess 8-OH-DPAT
T3 construct: expressed in transfected cells
T3 sequence (P08908 1-422): T1 sequence (P08908 1-422)
Procedure: When needed, membranes were rapidly thawed, centrifuged at 40,000 x g for 10 minutes and resuspended at 4 °C for 10 minutes in assay buffer (25 mM HEPES, 3 mM MgCl2, 100 mM NaCI, 1 mM EDTA, 10 uM GDP, 500 mM DTT, pH 8.0). These membranes were then incubated for 30 min at 30 °C with [^35S]GTPgS (1 nM) in the presence of vehicle, test compound (one to eight concentrations), or excess 8-OH-DPAT to define maximum agonist response. All reactions are terminated by the addition of ice cold Tris buffer followed by rapid filtration using a Tom Tech® filtration device to separate bound from free [^35S]GTPgS.

T2 sequence (P31652 whole entry): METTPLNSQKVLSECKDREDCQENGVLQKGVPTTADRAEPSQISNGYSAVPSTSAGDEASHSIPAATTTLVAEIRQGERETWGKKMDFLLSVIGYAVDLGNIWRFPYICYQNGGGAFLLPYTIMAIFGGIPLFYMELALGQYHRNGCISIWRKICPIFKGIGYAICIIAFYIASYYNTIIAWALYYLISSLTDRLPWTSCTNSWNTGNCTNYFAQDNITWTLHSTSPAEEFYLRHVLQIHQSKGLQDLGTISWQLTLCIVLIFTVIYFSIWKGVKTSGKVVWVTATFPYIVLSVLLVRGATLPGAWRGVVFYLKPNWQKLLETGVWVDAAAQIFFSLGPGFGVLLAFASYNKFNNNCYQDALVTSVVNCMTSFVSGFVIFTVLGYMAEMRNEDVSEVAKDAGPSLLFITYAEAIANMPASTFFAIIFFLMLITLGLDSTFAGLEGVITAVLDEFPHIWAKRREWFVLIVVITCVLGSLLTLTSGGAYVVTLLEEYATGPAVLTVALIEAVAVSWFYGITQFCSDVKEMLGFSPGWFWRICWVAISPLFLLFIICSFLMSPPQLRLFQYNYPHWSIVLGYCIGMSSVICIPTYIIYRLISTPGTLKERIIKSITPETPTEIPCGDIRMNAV

Structure (SMILES) | pKi [1] | Ki (serotonin transporter) [nM] | Emax (5-HT1A cloned receptor) [%]
O=c1[nH]c2cccc(OCCNCCCc3c[nH]c4ccccc34)c2[nH]1 [Example 2, 4-{2-[3-(1H-Indol-3-yl)-propylamino]-ethoxy}-1,3-dihydrobenzoimidazole-2-one] | 8.50 | 2.09 | 98.5
S=c1[nH]c2cccc(OCCNCCCc3c[nH]c4ccccc34)c2[nH]1 [Example 3, 4-{2-[3-(1H-Indol-3-yl)-propylamino]-ethoxy}-1,3-dihydrobenzoimidazole-2-thione] | 8.11 | 21 | –
O=C1Cc2c(OCCNCCCc3c[nH]c4ccccc34)ccc(F)c2N1 [Example 6, 7-Fluoro-4-{2-[3-(1H-indol-3-yl)-propylamino]-ethoxy}-1,3-dihydro-indol-2-one] | 7.41 | 12 | 49.9
